Source: publication PMC11672562, “Synthesis and Antibacterial Activity of New 6″-Modified Tobramycin Derivatives” (Antibiotics, 2024)
≈ marks a conversion by molar mass, not a printed value.

Legend:
[1] = tested on: E. coli JW5503 kanS EF-G P610T; assay: MIC in LB medium, aminoglycoside-resistant mutant EF-G P610T; format: cell-based; conditions: Escherichia coli, 18 h
Procedure: (§1) The determination of the minimum inhibitory concentration (MIC) was performed on three strains from the working collection of MSU: E. coli JW5503 [34], which lacked a kanamycin resistance cassette removed as per the method outlined in [39], and two strains derived from this strain through in vivo selection with kanamycin. The latter strains harbored P610T and P610L substitutions in the fusA gene. For the MIC determination, 100 μL (rows 2–11) and 200 μL (row 1) of LB liquid medium containing a 1:1000 dilution of overnight culture was added to each well of a 96-well transparent plate. Subsequently, 2 μL of a 50 μg/mL antibiotic solution was introduced into the first row, and serial two-fold dilutions were performed across each horizontal row, decreasing the antibiotic concentration incrementally. The final two rows were designated as controls: row 12 contained LB medium without cells or antibiotics, and row 11 contained cells without antibiotics. Following 18 h of incubation at 37 °C with constant agitation, the optical density at 590 nm (A590) was measured using a Victor X5 2030 spectrofluorometer (PerkinElmer, Waltham, MA, USA). The MIC was defined as the antibiotic concentration in the first well where no cell growth occurred. Each experiment was conducted in triplicate for all tested antibiotics.

[2] = tested on: resistant clinical isolates of P. aeruginosa; assay: MIC against resistant clinical isolates of P. aeruginosa; format: cell-based; conditions: for MIC: Pseudomonas aeruginosa
Procedure: (§2) The microbial strains used in this study were obtained from the collection of the Gause Institute of New Antibiotics. […] Storage was carried out in accordance with CLSI guidelines. Prior to experimentation, the bacterial strains were revived from cryopreservation by inoculating them onto trypticase soy agar (Becton, Dickinson, France) and incubating at (36 ± 1) °C for 16–24 h. Individual morphologically homogeneous colonies were then suspended in sterile physiological saline, and the turbidity of the suspension was adjusted to 0.5 McFarland units using a DEN-1 spectrophotometer (Biosan, Riga, Latvia), which corresponds to a concentration of 1.5 × 10^8 CFU/mL.
(§3) The samples were dissolved in sterile distilled water or dimethyl sulfoxide (DMSO), depending on the physicochemical properties of the compounds under investigation, to a concentration of 10,000 µg/mL.
(§4) Activity was evaluated by determining the minimum inhibitory concentration (MIC) values using the microdilution method in Mueller–Hinton Broth (Beckton and Dickinson, Le Pont-de-Claix, France), in accordance with the standard procedure for assessing the antimicrobial susceptibility of microorganisms.
(§5) The analysis was conducted in 96-well microtiter plates (Medpolymer, Saint Petersburg, Russia). The bacterial inoculum was introduced within 15 min of preparation. […] Microbial growth in the presence of the tested compounds was compared to the growth control (without exposure to the test samples). The MIC was defined as the lowest concentration at which visible microbial growth was inhibited.

P. aeruginosa ATCC 27853 = assay: MIC, broth microdilution, P. aeruginosa ATCC 27853; format: cell-based; conditions: for MIC: Pseudomonas aeruginosa, ATCC27853, P. aeruginosa ATCC 27853, Table 1, read-out: MIC
Procedure: The microbial strains used in this study were obtained from the collection of the Gause Institute of New Antibiotics. […] Storage was carried out in accordance with CLSI guidelines.
as §4, §5
(§6) The MIC values of the reference strains were required to fall within the acceptable ranges specified in [30], provided that standard assay conditions were maintained.

E. coli ATCC 25922 = assay: MIC, broth microdilution, E. coli ATCC 25922; format: cell-based; conditions: for MIC: Escherichia coli, ATCC25922, Table 1, read-out: MIC
Procedure: as §2, §3, §4, §5, §6

[3] = tested on: E. coli S30 Extract System, firefly luciferase synthesis; assay: Cell-free translation inhibition assay (firefly luciferase synthesis); format: biochemical; conditions: final concentration of 2 μM; water = 100
Procedure: The inhibitory effects of the tested compounds on in vitro firefly luciferase synthesis were evaluated using the E. coli S30 Extract System for Linear Templates (Promega, Madison, WI, USA), as described previously. Briefly, reaction mixtures with a total volume of 5 μL were prepared, containing 0.1 mM of a mixture of all canonical amino acids, 4 U of RiboLock RNase Inhibitor (Thermo Fisher Scientific, Waltham, MA, USA), and 2 μM of the tested compounds. After pre-incubation at room temperature for 5 min, 100 ng of in vitro-transcribed firefly luciferase mRNA was added. The mixtures were then incubated at 37 °C for 20 min. After incubation, each reaction was supplemented with 5 μL of Bright-Glo™ reagent (Promega, Madison, WI, USA), and chemiluminescence was measured using a VICTOR X5 Multilabel Plate Reader (PerkinElmer, Waltham, MA, USA). The luminescence values were normalized to the negative control (water), which was assigned 100% activity.

M. smegmatis ATCC 607 = assay: MIC, broth microdilution, M. smegmatis ATCC 607; format: cell-based; conditions: Mycolicibacterium smegmatis, ATCC607, Table 1, read-out: MIC
Procedure: as §2, §3, §4, §5

E. coli JW5503 = assay: MIC, broth microdilution, E. coli JW5503; format: cell-based; conditions: Escherichia coli, JW5503
Procedure: as §2, §3, §4, §5

E. coli JW5503 kanS = assay: MIC in LB medium, E. coli JW5503 kanS; format: cell-based; conditions: Escherichia coli, JW5503KANS, 18 h
Procedure: as §1

S. aureus ATCC 29213 = assay: MIC, broth microdilution, S. aureus ATCC 29213; format: cell-based; conditions: Staphylococcus aureus, ATCC29213, Table 1, read-out: MIC
Procedure: as §2, §3, §4, §5, §6

MTT cytotoxicity assay = format: cell-based; conditions: human, MTT test, HEK293T cells
Procedure: An MTT assay was conducted to assess the cytotoxicity of compounds on HEK293T cell lines. Cell line HEK293T was kindly provided by Dr. E. Knyazhanskaya. A total of 2500 cells per well were seeded into 96-well plates containing 100 μL of DMEM/F12 medium (Paneco LLC, Moscow, Russia) and incubated at 37 °C with 5% CO2 for 24 h prior to treatment. Dilutions of the test compounds 4a, 4b, 6a, and 6b, prepared in deionized sterile water, were added in 11 μL aliquots to achieve final concentrations ranging from 8.75 to 140 μg/mL (five dilutions per compound) in triplicate. The cells were incubated with the compounds for 72 h, after which 0.5 mg/mL of MTT reagent (Paneco LLC, Russia) was added. Following a 1.5 h incubation, the medium was removed, and 120 μL of DMSO was added to dissolve the blue formazan derivative formed by metabolically active cells. The absorbance at 565 nm was measured using a plate reader, and the data were normalized to untreated control cells. The half-maximal inhibitory concentration (IC50) was calculated using GraphPad Prism 5 software (GraphPad Software, Inc., San Diego, CA, USA).

[4] = P. aeruginosa strain, Table 2 column 3, head prints 27853
[5] = P. aeruginosa strain, Table 2 column 4, head prints 27853
[6] = P. aeruginosa strain, Table 2 column 5, head prints 27853
[7] = P. aeruginosa strain, Table 2 column 6, head prints 27853
[8] = P. aeruginosa strain, Table 2 column 7, head prints 27853
[9] = multidrug-resistant clinical isolates P. aeruginosa 21653 and P. aeruginosa 21571

SMILES | MIC [1] [µg/mL] | MIC [2, 4] [µg/mL] | MIC [2, 5] [µg/mL] | MIC [2, 6] [µg/mL] | MIC [2, 7] [µg/mL] | MIC [2, 8] [µg/mL] | MIC (P. aeruginosa ATCC 27853) [µg/mL] | MIC (E. coli ATCC 25922) [µg/mL] | % control signal (relative maximal rate of firefly luciferase accumulation in vitro) [3] [%] | MIC (M. smegmatis ATCC 607) [µg/mL] | MIC (E. coli JW5503) [µg/mL] | MIC (E. coli JW5503 kanS) [µg/mL] | MIC (S. aureus ATCC 29213) [µg/mL] | IC50 at 72 h (MTT cytotoxicity assay) [µg/mL] | MIC [2, 9] [µg/mL] | resistance index ([2]; resistant clinical isolates of P. aeruginosa strains) | MIC of control antibiotic (P. aeruginosa ATCC 27853; P. aeruginosa ATCC 27853, quality control, must fall in acceptable ranges of [30]) [µg/mL] | MIC of control antibiotic (E. coli ATCC 25922; quality control, must fall in acceptable ranges of [30]) [µg/mL]
NCCCNC[C@H]1O[C@H](O[C@@H]2[C@@H](O)[C@H](O[C@H]3O[C@H](CN)[C@@H](O)C[C@H]3N)[C@@H](N)C[C@H]2N)[C@H](O)[C@@H](N)[C@@H]1O [Compound 4b, 6″-(3-Aminopropyl-1-amino)-6″-deoxytobramycin acetate] | 80 | 32 | 32 | > 32 | > 32 | > 32 | 8 | 1 | 7 | 0.125 | 8 | 20 | 0.125 | > 140 | – | – | – | –
NCCNC[C@H]1O[C@H](O[C@@H]2[C@@H](O)[C@H](O[C@H]3O[C@H](CN)[C@@H](O)C[C@H]3N)[C@@H](N)C[C@H]2N)[C@H](O)[C@@H](N)[C@@H]1O [Compound 4a, 6″-(2-Aminoethyamino)-6″-deoxytobramycin acetate] | 40 | 16 | 32 | > 32 | > 32 | 32 | 1 | 0.5 | 0.02 | 0.125 | 2 | 10 | 0.125 | > 140 | 16 to 32 | – | – | –
N=C(N)NCCNC[C@H]1O[C@H](O[C@@H]2[C@@H](O)[C@H](O[C@H]3O[C@H](CN)[C@@H](O)C[C@H]3N)[C@@H](N)C[C@H]2N)[C@H](O)[C@@H](N)[C@@H]1O [Compound 6a, 6″-(2-Guanidinoethylamino)-6″-deoxytobramycin acetate] | 40 | 16 | 16 | > 32 | 32 | 32 | 1 | 1 | 0.4 | 0.125 | 4 | 10 | 0.125 | > 140 | 16 to 32 | – | – | –
N=C(N)NCCCNC[C@H]1O[C@H](O[C@@H]2[C@@H](O)[C@H](O[C@H]3O[C@H](CN)[C@@H](O)C[C@H]3N)[C@@H](N)C[C@H]2N)[C@H](O)[C@@H](N)[C@@H]1O [Compound 6b, 6″-(3-Guanidinopropyl-1-amino)-6″-deoxytobramycin acetate] | 80 | 16 | 32 | > 32 | > 32 | > 32 | 2 | 2 | 21 | 0.25 | 8 | 40 | 0.5 | > 140 | – | – | – | –
NC[C@H]1O[C@H](O[C@H]2[C@H](O)[C@@H](O[C@H]3O[C@H](CO)[C@@H](O)[C@H](N)[C@H]3O)[C@H](N)C[C@@H]2N)[C@H](N)C[C@@H]1O [Tobramycin, tobramycin] | 20 (≈ 42.8 µM) | > 128 | > 128 | > 128 | > 32 | > 32 | 0.5 (≈ 1.07 µM) | 0.25 (≈ 0.535 µM) | 0.01 | 0.06 (≈ 0.128 µM) | 1 (≈ 2.14 µM) | 5 (≈ 10.7 µM) | 0.06 (≈ 0.128 µM) | 58 ± 3 (≈ 124 µM) | – | > 256 | 0.25 to 1 | 0.25 to 1
